Assay results reported in PubChem BioAssay (NCI).
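Five concentrations, 48 hours, 96-well plates. TGI marks complete inhibition of growth.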

What was measured:
Assay in all cases: NCI tumour cell line growth inhibition, 48 h
M14 melanoma = test system: M14 melanoma
SK-MEL-2 melanoma = test system: SK-MEL-2 melanoma
PC-3 prostate = test system: PC-3 prostate
MDA-N = test system: MDA-N
COLO 205 colon = test system: COLO 205 colon
T-47D breast = test system: T-47D breast
HL-60(TB) leukemia = test system: HL-60(TB) leukemia
CCRF-CEM leukemia = test system: CCRF-CEM leukemia
NCI-H226 lung = test system: NCI-H226 lung
OVCAR-3 ovarian = test system: OVCAR-3 ovarian
DU-145 prostate = test system: DU-145 prostate
IGROV1 ovarian = test system: IGROV1 ovarian
SR leukemia = test system: SR leukemia
HCC-2998 colon = test system: HCC-2998 colon
A498 renal = test system: A498 renal
DLD-1 colon = test system: DLD-1 colon
NCI-H460 lung = test system: NCI-H460 lung
XF 498 CNS = test system: XF 498 CNS
MDA-MB-231 breast = test system: MDA-MB-231 breast
RXF-631 renal = test system: RXF-631 renal
OVCAR-8 ovarian = test system: OVCAR-8 ovarian
M19-MEL melanoma = test system: M19-MEL melanoma
LXFL 529 NSCLC = test system: LXFL 529 NSCLC
SNB-19 CNS = test system: SNB-19 CNS
HCT-116 colon = test system: HCT-116 colon
SF-295 CNS = test system: SF-295 CNS
A549 NSCLC = test system: A549 NSCLC
HOP-18 NSCLC = test system: HOP-18 NSCLC
RPMI-8226 leukemia = test system: RPMI-8226 leukemia
UACC-62 melanoma = test system: UACC-62 melanoma
KM20L2 colon = test system: KM20L2 colon
EKVX NSCLC = test system: EKVX NSCLC
NCI/ADR-RES ovarian = test system: NCI/ADR-RES ovarian
K-562 leukemia = test system: K-562 leukemia
SF-539 CNS = test system: SF-539 CNS
SNB-75 CNS = test system: SNB-75 CNS
UO-31 renal = test system: UO-31 renal
OVCAR-5 ovarian = test system: OVCAR-5 ovarian
786-0 renal = test system: 786-0 renal
SK-MEL-5 melanoma = test system: SK-MEL-5 melanoma
MOLT-4 leukemia = test system: MOLT-4 leukemia
SF-268 CNS = test system: SF-268 CNS
MDA-MB-435 = test system: MDA-MB-435
TK-10 renal = test system: TK-10 renal
SNB-78 CNS = test system: SNB-78 CNS
DMS 273 small cell lung = test system: DMS 273 small cell lung
SW-620 colon = test system: SW-620 colon
U251 CNS = test system: U251 CNS
BT-549 breast = test system: BT-549 breast
HOP-92 NSCLC = test system: HOP-92 NSCLC
HS 578T breast = test system: HS 578T breast
DMS 114 small cell lung = test system: DMS 114 small cell lung
UACC-257 melanoma = test system: UACC-257 melanoma
SK-MEL-28 melanoma = test system: SK-MEL-28 melanoma
MALME-3M melanoma = test system: MALME-3M melanoma
HT29 colon = test system: HT29 colon
HCT-15 colon = test system: HCT-15 colon
LOX IMVI melanoma = test system: LOX IMVI melanoma
NCI-H23 lung = test system: NCI-H23 lung
OVCAR-4 ovarian = test system: OVCAR-4 ovarian
NCI-H522 lung = test system: NCI-H522 lung
RXF 393 renal = test system: RXF 393 renal
MCF7 breast = test system: MCF7 breast
SK-OV-3 ovarian = test system: SK-OV-3 ovarian
ACHN renal = test system: ACHN renal
SN12C renal = test system: SN12C renal
KM12 colon = test system: KM12 colon
CAKI-1 renal = test system: CAKI-1 renal
HOP-62 NSCLC = test system: HOP-62 NSCLC

CN1C(c2ccccc2)CC(=NOCc2ccccc2)CC1c1ccccc1 (centres undefined)
TGI (M14 melanoma): > 78 µM
TGI (SK-MEL-2 melanoma): > 95.4 µM
TGI (PC-3 prostate): > 66.3 µM
TGI (MDA-N): > 56.3 µM
TGI (COLO 205 colon): 88.6 µM
TGI (T-47D breast): 36 µM
TGI (HL-60(TB) leukemia): 48.8 µM
TGI (CCRF-CEM leukemia): 70.8 µM
TGI (NCI-H226 lung): 84.8 µM
TGI (OVCAR-3 ovarian): 58.7 µM
TGI (DU-145 prostate): > 100 µM
TGI (IGROV1 ovarian): 62.1 µM
TGI (SR leukemia): 87.1 µM
TGI (HCC-2998 colon): > 100 µM
TGI (A498 renal): 68.8 µM
TGI (DLD-1 colon): > 100 µM
TGI (NCI-H460 lung): 39.9 µM
TGI (XF 498 CNS): > 100 µM
TGI (MDA-MB-231 breast): > 100 µM
TGI (RXF-631 renal): > 61.9 µM
TGI (OVCAR-8 ovarian): 44.9 µM
TGI (M19-MEL melanoma): > 100 µM
TGI (LXFL 529 NSCLC): 30.8 µM
TGI (SNB-19 CNS): > 56.2 µM
TGI (HCT-116 colon): 37.6 µM
TGI (SF-295 CNS): > 74.8 µM
TGI (A549 NSCLC): 43 µM
TGI (HOP-18 NSCLC): > 100 µM
TGI (RPMI-8226 leukemia): > 100 µM
TGI (UACC-62 melanoma): > 76.3 µM
TGI (KM20L2 colon): > 100 µM
TGI (EKVX NSCLC): > 69.3 µM
TGI (NCI/ADR-RES ovarian): 42.4 µM
TGI (K-562 leukemia): 44.3 µM
TGI (SF-539 CNS): > 75.6 µM
TGI (SNB-75 CNS): 62.1 µM
TGI (UO-31 renal): > 73.7 µM
TGI (OVCAR-5 ovarian): > 100 µM
TGI (786-0 renal): 53.7 µM
TGI (SK-MEL-5 melanoma): 70.6 µM
TGI (MOLT-4 leukemia): 71.2 µM
TGI (SF-268 CNS): 50.4 µM
TGI (MDA-MB-435): 39.2 µM
TGI (TK-10 renal): 70.9 µM
TGI (SNB-78 CNS): > 100 µM
TGI (DMS 273 small cell lung): > 100 µM
TGI (SW-620 colon): > 75.4 µM
TGI (U251 CNS): 55.2 µM
TGI (BT-549 breast): 30.6 µM
TGI (HOP-92 NSCLC): 81 µM
TGI (HS 578T breast): > 73.3 µM
TGI (DMS 114 small cell lung): 33.1 µM
TGI (UACC-257 melanoma): > 97 µM
TGI (SK-MEL-28 melanoma): > 76.3 µM
TGI (MALME-3M melanoma): > 87.8 µM
TGI (HT29 colon): 62.2 µM
TGI (HCT-15 colon): 49.2 µM
TGI (LOX IMVI melanoma): 29.9 µM
TGI (NCI-H23 lung): 71.5 µM
TGI (OVCAR-4 ovarian): 48.9 µM
TGI (NCI-H522 lung): 56 µM
TGI (RXF 393 renal): > 84.7 µM
TGI (MCF7 breast): > 56.8 µM
TGI (SK-OV-3 ovarian): > 96.9 µM
TGI (ACHN renal): 69.1 µM
TGI (SN12C renal): 62 µM
TGI (KM12 colon): 47.9 µM
TGI (CAKI-1 renal): > 80 µM
TGI (HOP-62 NSCLC): > 73.3 µM
